Measurements taken from US9695155B2, “Herbicidal substituted pyrimidinyloxy benzene compounds” (E. I. DU PONT DE NEMOURS AND COMPANY, priority 2013, dated 2017).

Legend:
[1] = test system: barnyardgrass; assay: Test A preemergence; format: in vivo, Echinochloa crus-galli; settings: for Plant response rating, Barnyardgrass: 125 g ai/ha, 0 to 100 scale where 0 is no effect and 100 is complete control; for Barnyardgrass plant response rating: 500 g ai/ha, 0 to 100 scale, 0 no effect, 100 complete control, approx. 10 days
Summary of the method: (§1)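 Greenhouse pot test, loam/sand soil. Formulation: non-phytotoxic solvent mix plus surfactant. Pre: directed spray onto soil after sowing. Post: plants at 1–2 leaf, 2–10 cm. Rated visually vs untreated controls at ~10 d, 0 (no effect) to 100 (complete control).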

[2] = test system: large (Lg) crabgrass; assay: Test A preemergence; format: in vivo, Digitaria sanguinalis; settings: for Plant response rating, Crabgrass, Large: 125 g ai/ha, 0 to 100 scale where 0 is no effect and 100 is complete control; for Crabgrass, Large plant response rating: 500 g ai/ha, 0 to 100 scale, 0 no effect, 100 complete control, approx. 10 days
Summary of the method: as §1

[3] = test system: giant foxtail; assay: Test A preemergence; format: in vivo, Setaria faberii; settings: for Plant response rating, Foxtail, Giant: 125 g ai/ha, 0 to 100 scale where 0 is no effect and 100 is complete control; for Foxtail, Giant plant response rating: 500 g ai/ha, 0 to 100 scale, 0 no effect, 100 complete control, approx. 10 days
Summary of the method: as §1

[4] = test system: morningglory; assay: Test A preemergence; format: in vivo, Ipomoea spp.; settings: for Plant response rating, Morningglory: 125 g ai/ha, 0 to 100 scale where 0 is no effect and 100 is complete control; for Morningglory plant response rating: 500 g ai/ha, 0 to 100 scale, 0 no effect, 100 complete control, approx. 10 days
Summary of the method: as §1

[5] = test system: pigweed; assay: Test A preemergence; format: in vivo, Amaranthus retroflexus; settings: for Plant response rating, Pigweed: 125 g ai/ha, 0 to 100 scale where 0 is no effect and 100 is complete control; for Pigweed plant response rating: 500 g ai/ha, 0 to 100 scale, 0 no effect, 100 complete control, approx. 10 days
Summary of the method: as §1

[6] = test system: velvetleaf; assay: Test A preemergence; format: in vivo, Abutilon theophrasti; settings: for Plant response rating, Velvetleaf: 125 g ai/ha, 0 to 100 scale where 0 is no effect and 100 is complete control; for Velvetleaf plant response rating: 500 g ai/ha, 0 to 100 scale, 0 no effect, 100 complete control, approx. 10 days
Summary of the method: as §1

[7] = test system: wheat; assay: Test A preemergence; format: in vivo, Triticum aestivum; settings: for Plant response rating, Wheat: 125 g ai/ha, 0 to 100 scale where 0 is no effect and 100 is complete control; for Wheat plant response rating: 500 g ai/ha, 0 to 100 scale, 0 no effect, 100 complete control, approx. 10 days
Summary of the method: as §1

[8] = test system: corn; assay: Test A preemergence; format: in vivo, Zea mays; settings: for Plant response rating, Corn: 125 g ai/ha, 0 to 100 scale where 0 is no effect and 100 is complete control; for Corn plant response rating: 500 g ai/ha, 0 to 100 scale, 0 no effect, 100 complete control, approx. 10 days
Summary of the method: as §1

[9] = test system: barnyardgrass; assay: Test A postemergence; format: in vivo, Echinochloa crus-galli
Summary of the method: as §1

[10] = test system: large (Lg) crabgrass; assay: Test A postemergence; format: in vivo, Digitaria sanguinalis
Summary of the method: as §1

[11] = test system: giant foxtail; assay: Test A postemergence; format: in vivo, Setaria faberii
Summary of the method: as §1

[12] = test system: morningglory; assay: Test A postemergence; format: in vivo, Ipomoea spp.
Summary of the method: as §1

[13] = test system: pigweed; assay: Test A postemergence; format: in vivo, Amaranthus retroflexus
Summary of the method: as §1

[14] = test system: velvetleaf; assay: Test A postemergence; format: in vivo, Abutilon theophrasti
Summary of the method: as §1

[15] = test system: wheat; assay: Test A postemergence; format: in vivo, Triticum aestivum
Summary of the method: as §1

[16] = test system: corn; assay: Test A postemergence; format: in vivo, Zea mays
Summary of the method: as §1

[17] = test system: rice; assay: Test B flooded paddy test; format: in vivo, Oryza sativa; settings: Flood, 250 g ai/ha; 0 to 100 scale where 0 is no effect and 100 is complete control
Summary of the method: (§2)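 Compound added straight to paddy water, with pots kept flooded 3 cm above soil, on plants grown to the 2-leaf stage. Visual scoring 0-100 (100 = complete control) against untreated controls after 13 to 15 greenhouse days.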

[18] = test system: sedge, umbrella; assay: Test B flooded paddy test; format: in vivo, Cyperus difformis; settings: Flood, 250 g ai/ha; 0 to 100 scale where 0 is no effect and 100 is complete control
Summary of the method: as §2

[19] = test system: Heteranthera limosa; assay: Test B flooded paddy test; format: in vivo; settings: Flood, 250 g ai/ha; 0 to 100 scale where 0 is no effect and 100 is complete control
Summary of the method: as §2

[20] = test system: barnyardgrass; assay: Test B flooded paddy test; format: in vivo, Echinochloa crus-galli; settings: Flood, 250 g ai/ha; 0 to 100 scale where 0 is no effect and 100 is complete control
Summary of the method: as §2

[21] = 125 g ai/ha, 0 to 100 scale where 0 is no effect and 100 is complete control
[22] = 500 g ai/ha, 0 to 100 scale, 0 no effect, 100 complete control

Cc1cnn(-c2ccccc2Oc2ncc(Cl)cn2)c1 [Compound 23]
Plant response rating, Barnyardgrass [1]: 20
Barnyardgrass plant response rating [1]: 50
Plant response rating, Crabgrass, Large [2]: 90
Crabgrass, Large plant response rating [2]: 90
Plant response rating, Foxtail, Giant [3]: 70
Foxtail, Giant plant response rating [3]: 90
Plant response rating, Morningglory [4]: 0
Morningglory plant response rating [4]: 0
Plant response rating, Pigweed [5]: 100
Pigweed plant response rating [5]: 100
Plant response rating, Velvetleaf [6]: 90
Velvetleaf plant response rating [6]: 90
Plant response rating, Wheat [7]: 0
Wheat plant response rating [7]: 0
Plant response rating, Corn [8]: 0
Corn plant response rating [8]: 20
Plant response rating, Barnyardgrass [9, 21]: 0
Plant response rating, Barnyardgrass [9, 22]: 40
Plant response rating, Crabgrass, Large [10, 21]: 20
Plant response rating, Crabgrass, Large [10, 22]: 60
Plant response rating, Foxtail, Giant [11, 21]: 40
Plant response rating, Foxtail, Giant [11, 22]: 90
Plant response rating, Morningglory [12, 21]: 50
Plant response rating, Morningglory [12, 22]: 90
Plant response rating, Pigweed [13, 21]: 90
Plant response rating, Pigweed [13, 22]: 100
Plant response rating, Velvetleaf [14, 21]: 80
Plant response rating, Velvetleaf [14, 22]: 100
Plant response rating, Wheat [15, 21]: 0
Plant response rating, Wheat [15, 22]: 20
Plant response rating, Corn [16, 21]: 0
Plant response rating, Corn [16, 22]: 60
Plant response rating, Rice [17]: 35
Plant response rating, Sedge, Umbrella [18]: 70
Plant response rating, Ducksalad [19]: 80
Plant response rating, Barnyardgrass [20]: 20

Brc1cnc(Oc2ccccc2-n2cc(Br)c(Br)n2)nc1 [Compound 24]
Plant response rating, Barnyardgrass [1]: 0
Barnyardgrass plant response rating [1]: 0
Plant response rating, Crabgrass, Large [2]: 0
Crabgrass, Large plant response rating [2]: 0
Plant response rating, Foxtail, Giant [3]: 0
Foxtail, Giant plant response rating [3]: 0
Plant response rating, Morningglory [4]: 0
Morningglory plant response rating [4]: 0
Plant response rating, Pigweed [5]: 0
Pigweed plant response rating [5]: 0
Plant response rating, Velvetleaf [6]: 0
Velvetleaf plant response rating [6]: 0
Plant response rating, Wheat [7]: 0
Wheat plant response rating [7]: 0
Plant response rating, Corn [8]: 0
Corn plant response rating [8]: 0
Plant response rating, Barnyardgrass [9, 21]: 0
Plant response rating, Barnyardgrass [9, 22]: 0
Plant response rating, Crabgrass, Large [10, 21]: 0
Plant response rating, Crabgrass, Large [10, 22]: 0
Plant response rating, Foxtail, Giant [11, 21]: 0
Plant response rating, Foxtail, Giant [11, 22]: 0
Plant response rating, Morningglory [12, 21]: 0
Plant response rating, Morningglory [12, 22]: 0
Plant response rating, Pigweed [13, 21]: 0
Plant response rating, Pigweed [13, 22]: 60
Plant response rating, Velvetleaf [14, 22]: 0
Plant response rating, Wheat [15, 21]: 0
Plant response rating, Wheat [15, 22]: 0
Plant response rating, Corn [16, 21]: 0
Plant response rating, Corn [16, 22]: 0
Plant response rating, Rice [17]: 35
Plant response rating, Sedge, Umbrella [18]: 60
Plant response rating, Ducksalad [19]: 0
Plant response rating, Barnyardgrass [20]: 0

FC(F)(F)c1ccn(-c2ccccc2Sc2ncc(Cl)cn2)n1 [Compound 28]
Plant response rating, Barnyardgrass [1]: 0
Barnyardgrass plant response rating [1]: 10
Plant response rating, Crabgrass, Large [2]: 0
Crabgrass, Large plant response rating [2]: 10
Plant response rating, Foxtail, Giant [3]: 0
Foxtail, Giant plant response rating [3]: 10
Plant response rating, Morningglory [4]: 0
Morningglory plant response rating [4]: 0
Plant response rating, Pigweed [5]: 0
Pigweed plant response rating [5]: 40
Plant response rating, Velvetleaf [6]: 0
Velvetleaf plant response rating [6]: 0
Plant response rating, Wheat [7]: 0
Wheat plant response rating [7]: 0
Plant response rating, Corn [8]: 0
Corn plant response rating [8]: 0
Plant response rating, Barnyardgrass [9, 21]: 0
Plant response rating, Barnyardgrass [9, 22]: 10
Plant response rating, Crabgrass, Large [10, 21]: 0
Plant response rating, Crabgrass, Large [10, 22]: 20
Plant response rating, Foxtail, Giant [11, 21]: 0
Plant response rating, Foxtail, Giant [11, 22]: 10
Plant response rating, Morningglory [12, 21]: 10
Plant response rating, Morningglory [12, 22]: 10
Plant response rating, Pigweed [13, 21]: 10
Plant response rating, Pigweed [13, 22]: 30
Plant response rating, Velvetleaf [14, 21]: 0
Plant response rating, Velvetleaf [14, 22]: 30
Plant response rating, Wheat [15, 21]: 0
Plant response rating, Wheat [15, 22]: 0
Plant response rating, Corn [16, 21]: 0
Plant response rating, Corn [16, 22]: 20
Plant response rating, Rice [17]: 0
Plant response rating, Sedge, Umbrella [18]: 0
Plant response rating, Ducksalad [19]: 35
Plant response rating, Barnyardgrass [20]: 0

CC(C)(C)c1ccn(-c2ccccc2Oc2ncc(Cl)cn2)n1 [Compound 29]
Plant response rating, Barnyardgrass [1]: 0
Barnyardgrass plant response rating [1]: 20
Plant response rating, Crabgrass, Large [2]: 10
Crabgrass, Large plant response rating [2]: 40
Plant response rating, Foxtail, Giant [3]: 10
Foxtail, Giant plant response rating [3]: 20
Plant response rating, Morningglory [4]: 0
Morningglory plant response rating [4]: 0
Plant response rating, Pigweed [5]: 0
Pigweed plant response rating [5]: 0
Plant response rating, Velvetleaf [6]: 0
Velvetleaf plant response rating [6]: 40
Plant response rating, Wheat [7]: 0
Wheat plant response rating [7]: 0
Plant response rating, Corn [8]: 0
Corn plant response rating [8]: 0
Plant response rating, Barnyardgrass [9, 21]: 0
Plant response rating, Barnyardgrass [9, 22]: 0
Plant response rating, Crabgrass, Large [10, 21]: 10
Plant response rating, Crabgrass, Large [10, 22]: 40
Plant response rating, Foxtail, Giant [11, 21]: 20
Plant response rating, Foxtail, Giant [11, 22]: 30
Plant response rating, Morningglory [12, 21]: 0
Plant response rating, Morningglory [12, 22]: 0
Plant response rating, Pigweed [13, 21]: 20
Plant response rating, Pigweed [13, 22]: 50
Plant response rating, Velvetleaf [14, 21]: 20
Plant response rating, Velvetleaf [14, 22]: 40
Plant response rating, Wheat [15, 21]: 0
Plant response rating, Wheat [15, 22]: 0
Plant response rating, Corn [16, 21]: 0
Plant response rating, Corn [16, 22]: 0
Plant response rating, Rice [17]: 0
Plant response rating, Sedge, Umbrella [18]: 0
Plant response rating, Ducksalad [19]: 0
Plant response rating, Barnyardgrass [20]: 0

CC(C)(C)c1ccn(-c2ccccc2Oc2ncc(Br)cn2)n1 [Compound 30]
Plant response rating, Barnyardgrass [1]: 0
Barnyardgrass plant response rating [1]: 10
Plant response rating, Crabgrass, Large [2]: 40
Crabgrass, Large plant response rating [2]: 60
Plant response rating, Foxtail, Giant [3]: 0
Foxtail, Giant plant response rating [3]: 30
Plant response rating, Morningglory [4]: 0
Morningglory plant response rating [4]: 0
Plant response rating, Pigweed [5]: 0
Pigweed plant response rating [5]: 0
Plant response rating, Velvetleaf [6]: 10
Velvetleaf plant response rating [6]: 40
Plant response rating, Wheat [7]: 0
Wheat plant response rating [7]: 0
Plant response rating, Corn [8]: 0
Corn plant response rating [8]: 0
Plant response rating, Barnyardgrass [9, 21]: 10
Plant response rating, Barnyardgrass [9, 22]: 10
Plant response rating, Crabgrass, Large [10, 21]: 30
Plant response rating, Crabgrass, Large [10, 22]: 40
Plant response rating, Foxtail, Giant [11, 21]: 10
Plant response rating, Foxtail, Giant [11, 22]: 10
Plant response rating, Morningglory [12, 21]: 0
Plant response rating, Morningglory [12, 22]: 0
Plant response rating, Pigweed [13, 21]: 0
Plant response rating, Pigweed [13, 22]: 30
Plant response rating, Velvetleaf [14, 21]: 20
Plant response rating, Velvetleaf [14, 22]: 30
Plant response rating, Wheat [15, 21]: 0
Plant response rating, Wheat [15, 22]: 0
Plant response rating, Corn [16, 21]: 0
Plant response rating, Corn [16, 22]: 0
Plant response rating, Rice [17]: 0
Plant response rating, Sedge, Umbrella [18]: 0
Plant response rating, Ducksalad [19]: 0
Plant response rating, Barnyardgrass [20]: 0
